According to patent publication US8853230B2, “Inhibitors of JAK” (Portola Pharmaceuticals, Inc., priority 2009, dated 2014):

Columns and labels:
JAK1 = biological target: T1, JAK1 (Homo sapiens, UniProt P23458); assay: Z'-LYTE kinase assay, JAK1 tyrosine phosphorylation activity; type: biochemical; conditions: read-out: JAK 1 IC50
T1 construct: 5 μl of catalytic domain recombinant Kinase enzyme+Tyr peptide substrate (Invitrogen, Calif.); purchased Invitrogen
How it was run: (§1)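 Recombinant catalytic-domain kinase was incubated with coumarin/fluorescein-labelled Tyr6 peptide, ATP and compound (1% DMSO final) for 1 h at room temperature. Protease development then ran 1 h at room temperature. Emission ratio at 445/520 nm (excitation 400 nm) gave percent phosphorylation; IC50s came from 4-parameter logistic fits.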

JAK2 = biological target: T2, JAK2 (Homo sapiens, UniProt O60674); assay: Z'-LYTE kinase assay, JAK2 tyrosine phosphorylation activity; type: biochemical
T2 construct: 5 μl of catalytic domain recombinant Kinase enzyme+Tyr peptide substrate (Invitrogen, Calif.); purchased Invitrogen
T2 sequence (O60674 849-1124 limits assumed): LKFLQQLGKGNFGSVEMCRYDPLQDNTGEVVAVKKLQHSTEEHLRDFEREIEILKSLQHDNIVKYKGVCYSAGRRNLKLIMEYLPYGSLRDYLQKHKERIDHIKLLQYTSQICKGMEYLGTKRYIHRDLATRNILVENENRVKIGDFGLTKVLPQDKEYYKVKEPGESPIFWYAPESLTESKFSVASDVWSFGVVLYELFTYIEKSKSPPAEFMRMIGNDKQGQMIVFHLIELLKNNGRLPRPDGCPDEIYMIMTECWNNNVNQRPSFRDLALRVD
How it was run: as §1

JAK3 = biological target: T3, JAK3 (Homo sapiens, UniProt P52333); assay: Z'-LYTE kinase assay, JAK3 tyrosine phosphorylation activity; type: biochemical
T3 construct: 5 μl of catalytic domain recombinant Kinase enzyme+Tyr peptide substrate (Invitrogen, Calif.); purchased Invitrogen
T3 sequence (P52333 822-1111 limits assumed): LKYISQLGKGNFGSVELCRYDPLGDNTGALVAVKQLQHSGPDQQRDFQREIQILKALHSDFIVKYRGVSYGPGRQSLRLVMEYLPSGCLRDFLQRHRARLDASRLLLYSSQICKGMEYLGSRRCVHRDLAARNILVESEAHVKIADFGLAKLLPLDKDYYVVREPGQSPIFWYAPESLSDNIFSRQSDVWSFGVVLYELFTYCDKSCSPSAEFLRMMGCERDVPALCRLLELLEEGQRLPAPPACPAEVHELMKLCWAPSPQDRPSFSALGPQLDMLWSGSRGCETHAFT
How it was run: as §1

TYK2 = biological target: T4, TYK2 (Homo sapiens, UniProt P29597); assay: Z'-LYTE kinase assay, TYK2 tyrosine phosphorylation activity; type: biochemical
T4 construct: 5 μl of catalytic domain recombinant Kinase enzyme+Tyr peptide substrate (Invitrogen, Calif.); purchased Invitrogen
T4 sequence (P29597 897-1176 limits assumed): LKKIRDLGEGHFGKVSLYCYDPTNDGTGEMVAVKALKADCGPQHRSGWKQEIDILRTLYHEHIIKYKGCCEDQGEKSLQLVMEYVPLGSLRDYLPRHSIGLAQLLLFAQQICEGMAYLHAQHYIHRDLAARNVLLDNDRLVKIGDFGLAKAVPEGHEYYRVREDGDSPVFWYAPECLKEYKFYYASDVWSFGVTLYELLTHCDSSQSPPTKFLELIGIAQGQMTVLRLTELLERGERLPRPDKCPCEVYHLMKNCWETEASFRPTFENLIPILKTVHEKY
How it was run: as §1

[1] = tested on: IL4-induced phospho STAT6 formation in Ramos B lymphocytes; assay: Inhibition of IL4-induced phospho STAT6 formation in Ramos B lymphocytes (flow cytometry); type: cell-based, human; conditions: for inhibition at 0.2 µM / inhibition at 1 µM: Homo sapiens; for inhibition at 0.2 µM: read-out: % Inhibition of IL-4 Induced STAT6 Phosphorylation 200 nM; for inhibition at 1 µM: read-out: % Inhibition of IL-4 Induced STAT6 Phosphorylation 1 μM
Source text: Similar types of assays can be used to assess JAK inhibitory activity and to determine the degree of selectivity of the particular compound as compared to syk. One means of assaying for such inhibition is detection of the effect of the compounds of the present invention on the upregulation of downstream gene products. In the Ramos/IL4 assay, B-cells are stimulated with the cytokine Interleukin-4 (IL-4) leading to the activation of the JAK/Stat pathway through phosphorylation of the JAK family kinases, JAK1 and JAK3, which in turn phosphorylate and activate the transcription factor Stat-6. […] To study the effect of inhibitors (e.g., the 2,4-substituted pyrimindinediamine compounds described herein) on the JAK1 and JAK3, human Ramos B-cells are stimulated with human IL-4. 10′ post-stimulation, cells are subjected to intracellular flow cytometry to measure the extent of STAT-6 phosphorylation. 20 to 24 hours post-stimulation, cells are stained for upregulation of CD23 and analyzed using flow cytometry.
Inhibition of IL4-induced phospho STAT6 formation was measured by pre-incubating 0.5 million Ramos B lymphocytes (ATCC) with 5 μl compound or DMSO vehicle for 1 hour at 37° C./5% CO2. Cells were activated by addition of 1 ng/ml [f]IL4 (R & D Research Systems) for 10 min at 37° C./5% CO2 and then fixed by addition of 1.6% [f]PFA (Electron Microscopy Services). Following a PBS wash step and permaeabilization with 100% methanol, cells were incubated with ALEXA-conjugated anti-phosphoSTAT6 (Y641) antibody (BD 612600). The extent of cell associated-fluorescence was determined by flow cytomentry and data expressed as mean fluorescent intensity. The extent of inhibition of the IL4-induced signal was then calculated.

T1 sequence (P23458 875-1153 limits assumed): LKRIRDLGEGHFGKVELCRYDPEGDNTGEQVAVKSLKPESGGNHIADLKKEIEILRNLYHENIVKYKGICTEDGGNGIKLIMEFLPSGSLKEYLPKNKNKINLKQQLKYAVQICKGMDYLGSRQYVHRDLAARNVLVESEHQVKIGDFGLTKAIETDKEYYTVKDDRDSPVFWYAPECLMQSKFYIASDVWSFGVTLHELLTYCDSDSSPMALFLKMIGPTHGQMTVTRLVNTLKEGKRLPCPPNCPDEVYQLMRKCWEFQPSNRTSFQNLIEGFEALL

IC50 (JAK1) | IC50 (JAK2) | IC50 (JAK3) | IC50 (TYK2) | Compound | inhibition at 0.2 µM ([1]; 200 nM compound) | inhibition at 1 µM ([1]; 1 μM compound) | % Inhibition of IL-4 Induced STAT6 Phosphorylation 200 nM ([1]; 200 nM compound) | % Inhibition of IL-4 Induced STAT6 Phosphorylation 1 μM ([1]; 1 μM compound)
10 to 100 nM | 10 to 100 nM | 1 to 10 nM | 1 to 10 nM | NC(=O)c1cnc(Nc2cccc(NC(=O)N3CCCCC3)c2)nc1NCc1ccccc1 [Example 218, 4-(benzylamino)-2-(3-(piperidine-1-carboxamido)phenylamino)pyrimidine-5-carboxamide] | 28.7% | 76% | – | –
10 to 100 nM | 10 to 100 nM | < 1 nM | 1 to 10 nM | CN1CCN(C(=O)Nc2cccc(Nc3ncc(C(N)=O)c(NCc4ccccc4)n3)c2)CC1 [Example 216, 4-(benzylamino)-2-(3-(4-methylpiperazine-1-carboxamido)phenylamino)pyrimidine-5-carboxamide] | 57.3% | 91% | – | –
10 to 100 nM | 10 to 100 nM | 1 to 10 nM | 1 to 10 nM | NC(=O)c1cnc(Nc2ccc(Cl)c(NC(=O)N3CCOCC3)c2)nc1NCc1ccccc1 [Example 182, N-(5-(4-(benzylamino)-5-carbamoylpyrimidin-2-ylamino)-2-chlorophenyl)morpholine-4-carboxamide] | 42.3% | 89% | – | –
10 to 100 nM | > 1000 nM | 10 to 100 nM | 10 to 100 nM | CC(C)[C@H](C)Nc1nc(Nc2ccc(Cl)c(NC(=O)N3CCCC3)c2)ncc1C(N)=O [Example 248, (S)-2-(4-chloro-3-(pyrrolidine-1-carboxamido)phenylamino)-4-(3-methylbutan-2-ylamino)pyrimidine-5-carboxamide] | 61.3% | 94.7% | – | –
10 to 100 nM | 10 to 100 nM | 1 to 10 nM | 1 to 10 nM | CNC(=O)Nc1cccc(Nc2ncc(C(N)=O)c(NCc3ccccc3F)n2)c1 [Example 181, 4-(2-fluorobenzylamino)-2-(3-(3-methylureido)phenylamino)pyrimidine-5-carboxamide] | 23.7% | 38.7% | – | –
10 to 100 nM | 10 to 100 nM | 1 to 10 nM | 1 to 10 nM | NC(=O)c1cnc(Nc2cccc(NC(=O)N3CCOCC3)c2)nc1NCc1ccccc1 [Example 217, N-(3-(4-(benzylamino)-5-carbamoylpyrimidin-2-ylamino)phenyl)morpholine-4-carboxamide] | 61.3% | 92% | – | –
10 to 100 nM | 10 to 100 nM | 1 to 10 nM | 10 to 100 nM | CC(=O)Nc1cccc(Nc2ncc(C(N)=O)c(NCC3CCNCC3)n2)c1 [Example 190, 2-(3-acetamidophenylamino)-4-(piperidin-4-ylmethylamino)pyrimidine-5-carboxamide] | 17% | 39.3% | – | –
100 to 1000 nM | 100 to 1000 nM | 1 to 10 nM | 10 to 100 nM | CN(C)C(=O)Nc1cc(Nc2ncc(C(N)=O)c(NCc3ccccc3)n2)ccc1Cl [Example 196, 4-(benzylamino)-2-(4-chloro-3-(3,3-dimethylureido)phenylamino)pyrimidine-5-carboxamide] | 8.3% | 65% | – | –
10 to 100 nM | 10 to 100 nM | 1 to 10 nM | 1 to 10 nM | CNC(=O)Nc1cc(Nc2ncc(C(N)=O)c(NCc3ccccc3)n2)ccc1C [Example 157, 4-(benzylamino)-2-(4-methyl-3-(3-methylureido)phenylamino)pyrimidine-5-carboxamide] | 23% | 31.7% | – | –
> 1000 nM | > 1000 nM | 10 to 100 nM | 100 to 1000 nM | CN(C)C(=O)Nc1ccc(F)c(Nc2ncc(C(N)=O)c(NCc3ccccc3)n2)c1 [Example 201, 4-(benzylamino)-2-(5-(3,3-dimethylureido)-2-fluorophenylamino)pyrimidine-5-carboxamide] | – | – | – | –
100 to 1000 nM | 100 to 1000 nM | 10 to 100 nM | 100 to 1000 nM | CC(=O)Nc1cccc(Nc2ncc(C(N)=O)c(NCC3CCN(C(=O)OC(C)(C)C)C3)n2)c1 (centres unmarked) [Example 225, tert-butyl 3-((2-(3-acetamidophenylamino)-5-carbamoylpyrimidin-4-ylamino)methyl)pyrrolidine-1-carboxylate] | – | – | – | –

Second part, the compound before the results:

Compound | IC50 (JAK1) | IC50 (JAK2) | IC50 (JAK3) | IC50 (TYK2) | inhibition at 0.2 µM ([1]; 200 nM compound) | inhibition at 1 µM ([1]; 1 μM compound) | % Inhibition of IL-4 Induced STAT6 Phosphorylation 200 nM ([1]; 200 nM compound) | % Inhibition of IL-4 Induced STAT6 Phosphorylation 1 μM ([1]; 1 μM compound)
CCNC(=O)Nc1cc(Nc2ncc(C(N)=O)c(NCc3ccccc3)n2)ccc1Cl [Example 153] | 100 to 1000 nM | 100 to 1000 nM | 10 to 100 nM | 10 to 100 nM | 22.3% | 51.7% | – | –
CNC(=O)Nc1cc(Nc2ncc(C(N)=O)c(N[C@H](C)c3ccccc3)n2)ccc1Cl [Example 132, (R)-2-(4-chloro-3-(3-methylureido)phenylamino)-4-(1-phenylethylamino)pyrimidine-5-carboxamide] | 100 to 1000 nM | 100 to 1000 nM | 10 to 100 nM | 100 to 1000 nM | 7.5% | 53.7% | – | –
C[C@@H](Nc1nc(Nc2ccc(Cl)c(NC(=O)C3CC3)c2)ncc1C(N)=O)c1ccccc1 [Example 110, (R)-2-(4-chloro-3-(cyclopropanecarboxamido)phenylamino)-4-(1-phenylethylamino)pyrimidine-5-carboxamide] | 100 to 1000 nM | 100 to 1000 nM | 10 to 100 nM | 100 to 1000 nM | 48.3% | 97.7% | – | –
NC(=O)c1cnc(Nc2cccc(NC(=O)N3CC=CC3)c2)nc1NCc1ccccc1 [Example 142, 4-(benzylamino)-2-(3-(2,5-dihydro-1H-pyrrole-1-carboxamido)phenylamino)pyrimidine-5-carboxamide] | 10 to 100 nM | 10 to 100 nM | 1 to 10 nM | 1 to 10 nM | 41.3% | 79.3% | – | –
2-(3-(azetidine-1-carboxamido)phenylamino)-4-(benzylamino)pyrimidine-5-carboxamide [Example 219] | 10 to 100 nM | 10 to 100 nM | 1 to 10 nM | 10 to 100 nM | – | – | 19.0% | 65.3%
CCCCNc1nc(Nc2cccc(NC(=O)N3CCCC3)c2)ncc1C(N)=O [Example 135, 4-(butylamino)-2-(3-(pyrrolidine-1-carboxamido)phenylamino)pyrimidine-5-carboxamide] | 10 to 100 nM | 10 to 100 nM | 1 to 10 nM | 1 to 10 nM | 42.3% | 89.7% | – | –
NC(=O)c1cnc(Nc2ccc(Cl)c(NC(=O)NC3CC3)c2)nc1NCc1ccccc1 [Example 154, 4-(benzylamino)-2-(4-chloro-3-(3-cyclopropylureido)phenylamino)pyrimidine-5-carboxamide] | > 1000 nM | > 1000 nM | 10 to 100 nM | 100 to 1000 nM | 11.7% | 33.7% | – | –
C[C@@H](Nc1nc(Nc2cccc(NC(=O)N3CCC[C@@H]3C)c2)ncc1C(N)=O)c1ccccc1 [Example 137, 2-(3-((S)-2-methylpyrrolidine-1-carboxamido)phenylamino)-4-((R)-1-phenylethylamino)pyrimidine-5-carboxamide] | 100 to 1000 nM | 10 to 100 nM | 1 to 10 nM | 10 to 100 nM | 14.7% | 57.3% | – | –
COC[C@@H]1CCCN1C(=O)Nc1cccc(Nc2ncc(C(N)=O)c(NCc3ccccc3)n2)c1 [Example 140, (S)-4-(benzylamino)-2-(3-(2-(methoxymethyl)pyrrolidine-1-carboxamido)phenylamino)pyrimidine-5-carboxamide] | 10 to 100 nM | 10 to 100 nM | 1 to 10 nM | 1 to 10 nM | 21.7% | 69% | – | –
